Measured values from patent US7118895B2, “Process for producing aglycon by using diglycosidase and flavor-improved food containing the aglycon and converting agent to be used in the process” (Amano Enzyme Inc., priority 2000, dated 2006).

Test system: Crude diglycosidase
Assay: Examination of pH in the conversion into isoflavone aglycons by diglycosidase using soybean materials
Format: biochemical, Penicillium multicolor IAM7153
Design: Decomposition efficiency of genistin family in soymilk / Decomposition efficiency of genistin family in defatted soybean / Decomposition efficiency of daidzin family in defatted soybean: concentration or dose not given beside the values
Settings: for Decomposition efficiency of daidzin family in roasted soy flour: 55° C.
In short: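 HPLC readout: isoflavone glycosides vs aglycons. Substrates: 50 mg soy material (roasted flour, soymilk, defatted bean, concentrated protein), pH 2–11 (HCl/NaOH). Crude diglycosidase solution 1.88 AU/mL, matched pH; 55° C; quenched with ethanol at 0/1/3/6 h; centrifuged 15,000 rpm, 4° C, 10 min.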

[1] = pH4.8, heat treatment of enzyme: no, reaction time 0 h
[2] = pH4.8, heat treatment of enzyme: no, reaction time 1 h
[3] = pH4.8, heat treatment of enzyme: no, reaction time 3 h
[4] = pH4.8, heat treatment of enzyme: no, reaction time 6 h
[5] = pH4.8, heat treatment of enzyme: yes, reaction time 6 h
[6] = pH6.6, heat treatment of enzyme: no, reaction time 0 h
[7] = pH6.6, heat treatment of enzyme: no, reaction time 1 h
[8] = pH6.6, heat treatment of enzyme: no, reaction time 3 h
[9] = pH6.6, heat treatment of enzyme: no, reaction time 6 h
[10] = pH6.6, heat treatment of enzyme: yes, reaction time 6 h

O=C(O)CC(=O)OC[C@H]1O[C@@H](Oc2ccc3c(=O)c(-c4ccc(O)cc4)coc3c2)[C@H](O)[C@@H](O)[C@@H]1O [malonyldaidzin, 6″-O-malonyldaidzin]
Decomposition efficiency of daidzin family in concentrated soybean protein (pH1.6, heat treatment of enzyme: no, reaction time 0 h): not detected | Decomposition efficiency of daidzin family in concentrated soybean protein (pH1.6, heat treatment of enzyme: no, reaction time 1 h): not detected | Decomposition efficiency of daidzin family in concentrated soybean protein (pH1.6, heat treatment of enzyme: no, reaction time 3 h): not detected | Decomposition efficiency of daidzin family in concentrated soybean protein (pH1.6, heat treatment of enzyme: no, reaction time 6 h): not detected | Decomposition efficiency of daidzin family in concentrated soybean protein (pH1.6, heat treatment of enzyme: yes, reaction time 6 h): not detected | Decomposition efficiency of daidzin family in roasted soy flour (pH2, heat treatment of enzyme no, reaction time 0 h): not detected | Decomposition efficiency of daidzin family in roasted soy flour (pH2, heat treatment of enzyme no, reaction time 1 h): not detected | Decomposition efficiency of daidzin family in roasted soy flour (pH2, heat treatment of enzyme no, reaction time 3 h): not detected | Decomposition efficiency of daidzin family in roasted soy flour (pH2, heat treatment of enzyme no, reaction time 6 h): not detected | Decomposition efficiency of daidzin family in roasted soy flour (pH2, heat treatment of enzyme yes, reaction time 6 h): not detected | Decomposition efficiency of daidzin family in soymilk (pH2.3, heat treatment of enzyme: no, reaction time 0 h): 55.1% | Decomposition efficiency of daidzin family in soymilk (pH2.3, heat treatment of enzyme: no, reaction time 1 h): 54.7% | Decomposition efficiency of daidzin family in soymilk (pH2.3, heat treatment of enzyme: no, reaction time 3 h): 51.1% | Decomposition efficiency of daidzin family in soymilk (pH2.3, heat treatment of enzyme: no, reaction time 6 h): 48.5% | Decomposition efficiency of daidzin family in soymilk (pH2.3, heat treatment of enzyme: yes, reaction time 6 h): 51.0% | Decomposition efficiency of daidzin family in defatted soybean (pH2.6, heat treatment of enzyme: no, reaction time 0 h): 41.0% | Decomposition efficiency of daidzin family in defatted soybean (pH2.6, heat treatment of enzyme: no, reaction time 1 h): 41.2% | Decomposition efficiency of daidzin family in defatted soybean (pH2.6, heat treatment of enzyme: no, reaction time 3 h): 41.8% | Decomposition efficiency of daidzin family in defatted soybean (pH2.6, heat treatment of enzyme: no, reaction time 6 h): 40.2% | Decomposition efficiency of daidzin family in defatted soybean (pH2.6, heat treatment of enzyme: yes, reaction time 6 h): 38.9% | Decomposition efficiency of daidzin family in concentrated soybean protein (pH2.7, heat treatment of enzyme: no, reaction time 0 h): not detected | Decomposition efficiency of daidzin family in concentrated soybean protein (pH2.7, heat treatment of enzyme: no, reaction time 1 h): not detected | Decomposition efficiency of daidzin family in concentrated soybean protein (pH2.7, heat treatment of enzyme: no, reaction time 3 h): not detected | Decomposition efficiency of daidzin family in concentrated soybean protein (pH2.7, heat treatment of enzyme: no, reaction time 6 h): not detected | Decomposition efficiency of daidzin family in concentrated soybean protein (pH2.7, heat treatment of enzyme: yes, reaction time 6 h): not detected | Decomposition efficiency of daidzin family in roasted soy flour (pH3, heat treatment of enzyme no, reaction time 0 h): not detected | Decomposition efficiency of daidzin family in roasted soy flour (pH3, heat treatment of enzyme no, reaction time 1 h): not detected | Decomposition efficiency of daidzin family in roasted soy flour (pH3, heat treatment of enzyme no, reaction time 3 h): not detected | Decomposition efficiency of daidzin family in roasted soy flour (pH3, heat treatment of enzyme no, reaction time 6 h): not detected | Decomposition efficiency of daidzin family in roasted soy flour (pH3, heat treatment of enzyme yes, reaction time 6 h): not detected | Decomposition efficiency of daidzin family in defatted soybean (pH3.4, heat treatment of enzyme: no, reaction time 0 h): 41.0% | Decomposition efficiency of daidzin family in defatted soybean (pH3.4, heat treatment of enzyme: no, reaction time 1 h): 39.4% | Decomposition efficiency of daidzin family in defatted soybean (pH3.4, heat treatment of enzyme: no, reaction time 3 h): 34.5% | Decomposition efficiency of daidzin family in defatted soybean (pH3.4, heat treatment of enzyme: no, reaction time 6 h): 29.0% | Decomposition efficiency of daidzin family in defatted soybean (pH3.4, heat treatment of enzyme: yes, reaction time 6 h): 37.1% | Decomposition efficiency of daidzin family in soymilk (pH3.5, heat treatment of enzyme: no, reaction time 0 h): 55.1% | Decomposition efficiency of daidzin family in soymilk (pH3.5, heat treatment of enzyme: no, reaction time 1 h): 35.6% | Decomposition efficiency of daidzin family in soymilk (pH3.5, heat treatment of enzyme: no, reaction time 3 h): 15.1% | Decomposition efficiency of daidzin family in soymilk (pH3.5, heat treatment of enzyme: no, reaction time 6 h): 7.4% | Decomposition efficiency of daidzin family in soymilk (pH3.5, heat treatment of enzyme: yes, reaction time 6 h): 49.1% | Decomposition efficiency of daidzin family in concentrated soybean protein (pH3.7, heat treatment of enzyme: no, reaction time 0 h): not detected | Decomposition efficiency of daidzin family in concentrated soybean protein (pH3.7, heat treatment of enzyme: no, reaction time 1 h): not detected | Decomposition efficiency of daidzin family in concentrated soybean protein (pH3.7, heat treatment of enzyme: no, reaction time 3 h): not detected | Decomposition efficiency of daidzin family in concentrated soybean protein (pH3.7, heat treatment of enzyme: no, reaction time 6 h): not detected | Decomposition efficiency of daidzin family in concentrated soybean protein (pH3.7, heat treatment of enzyme: yes, reaction time 6 h): not detected | Decomposition efficiency of daidzin family in roasted soy flour (pH4, heat treatment of enzyme no, reaction time 0 h): not detected | Decomposition efficiency of daidzin family in roasted soy flour (pH4, heat treatment of enzyme no, reaction time 1 h): not detected | Decomposition efficiency of daidzin family in roasted soy flour (pH4, heat treatment of enzyme no, reaction time 3 h): not detected | Decomposition efficiency of daidzin family in roasted soy flour (pH4, heat treatment of enzyme no, reaction time 6 h): not detected | Decomposition efficiency of daidzin family in roasted soy flour (pH4, heat treatment of enzyme yes, reaction time 6 h): not detected | Decomposition efficiency of daidzin family in defatted soybean [1]: 40.7% | Decomposition efficiency of daidzin family in soymilk [1]: 56.2% | Decomposition efficiency of daidzin family in defatted soybean [2]: 40.5% | Decomposition efficiency of daidzin family in soymilk [2]: 47.4% | Decomposition efficiency of daidzin family in defatted soybean [3]: 36.7% | Decomposition efficiency of daidzin family in soymilk [3]: 33.9% | Decomposition efficiency of daidzin family in defatted soybean [4]: 30.5% | Decomposition efficiency of daidzin family in soymilk [4]: 20.3% | Decomposition efficiency of daidzin family in defatted soybean [5]: 38.4% | Decomposition efficiency of daidzin family in soymilk [5]: 49.7% | Decomposition efficiency of daidzin family in roasted soy flour (pH5, heat treatment of enzyme no, reaction time 0 h): not detected | Decomposition efficiency of daidzin family in roasted soy flour (pH5, heat treatment of enzyme no, reaction time 1 h): not detected | Decomposition efficiency of daidzin family in roasted soy flour (pH5, heat treatment of enzyme no, reaction time 3 h): not detected | Decomposition efficiency of daidzin family in roasted soy flour (pH5, heat treatment of enzyme no, reaction time 6 h): not detected | Decomposition efficiency of daidzin family in roasted soy flour (pH5, heat treatment of enzyme yes, reaction time 6 h): not detected | Decomposition efficiency of daidzin family in concentrated soybean protein (pH5.1, heat treatment of enzyme: no, reaction time 0 h): not detected | Decomposition efficiency of daidzin family in concentrated soybean protein (pH5.1, heat treatment of enzyme: no, reaction time 1 h): not detected | Decomposition efficiency of daidzin family in concentrated soybean protein (pH5.1, heat treatment of enzyme: no, reaction time 3 h): not detected | Decomposition efficiency of daidzin family in concentrated soybean protein (pH5.1, heat treatment of enzyme: no, reaction time 6 h): not detected | Decomposition efficiency of daidzin family in concentrated soybean protein (pH5.1, heat treatment of enzyme: yes, reaction time 6 h): not detected | Decomposition efficiency of daidzin family in defatted soybean (pH5.4, heat treatment of enzyme: no, reaction time 0 h): 40.7% | Decomposition efficiency of daidzin family in defatted soybean (pH5.4, heat treatment of enzyme: no, reaction time 1 h): 44.2% | Decomposition efficiency of daidzin family in defatted soybean (pH5.4, heat treatment of enzyme: no, reaction time 3 h): 41.5% | Decomposition efficiency of daidzin family in defatted soybean (pH5.4, heat treatment of enzyme: no, reaction time 6 h): 36.9% | Decomposition efficiency of daidzin family in defatted soybean (pH5.4, heat treatment of enzyme: yes, reaction time 6 h): 44.9% | Decomposition efficiency of daidzin family in soymilk (pH6.2, heat treatment of enzyme: no, reaction time 0 h): 56.2% | Decomposition efficiency of daidzin family in soymilk (pH6.2, heat treatment of enzyme: no, reaction time 1 h): 54.1% | Decomposition efficiency of daidzin family in soymilk (pH6.2, heat treatment of enzyme: no, reaction time 3 h): 46.4% | Decomposition efficiency of daidzin family in soymilk (pH6.2, heat treatment of enzyme: no, reaction time 6 h): 41.9% | Decomposition efficiency of daidzin family in soymilk (pH6.2, heat treatment of enzyme: yes, reaction time 6 h): 49.7% | Decomposition efficiency of daidzin family in roasted soy flour (pH6.5, heat treatment of enzyme no, reaction time 0 h): not detected | Decomposition efficiency of daidzin family in roasted soy flour (pH6.5, heat treatment of enzyme no, reaction time 1 h): not detected | Decomposition efficiency of daidzin family in roasted soy flour (pH6.5, heat treatment of enzyme no, reaction time 3 h): not detected | Decomposition efficiency of daidzin family in roasted soy flour (pH6.5, heat treatment of enzyme no, reaction time 6 h): not detected | Decomposition efficiency of daidzin family in roasted soy flour (pH6.5, heat treatment of enzyme yes, reaction time 6 h): not detected | Decomposition efficiency of daidzin family in concentrated soybean protein [6]: not detected | Decomposition efficiency of daidzin family in defatted soybean [6]: 43.1% | Decomposition efficiency of daidzin family in concentrated soybean protein [7]: not detected | Decomposition efficiency of daidzin family in defatted soybean [7]: 45.9% | Decomposition efficiency of daidzin family in concentrated soybean protein [8]: not detected | Decomposition efficiency of daidzin family in defatted soybean [8]: 44.0% | Decomposition efficiency of daidzin family in concentrated soybean protein [9]: not detected | Decomposition efficiency of daidzin family in defatted soybean [9]: 41.8% | Decomposition efficiency of daidzin family in concentrated soybean protein [10]: not detected | Decomposition efficiency of daidzin family in defatted soybean [10]: 41.2% | Decomposition efficiency of daidzin family in soymilk (pH7.2, heat treatment of enzyme: no, reaction time 0 h): 56.1% | Decomposition efficiency of daidzin family in soymilk (pH7.2, heat treatment of enzyme: no, reaction time 1 h): 56.4% | Decomposition efficiency of daidzin family in soymilk (pH7.2, heat treatment of enzyme: no, reaction time 3 h): 52.4% | Decomposition efficiency of daidzin family in soymilk (pH7.2, heat treatment of enzyme: no, reaction time 6 h): 48.2% | Decomposition efficiency of daidzin family in soymilk (pH7.2, heat treatment of enzyme: yes, reaction time 6 h): 48.3% | Decomposition efficiency of daidzin family in defatted soybean (pH7.8, heat treatment of enzyme: no, reaction time 0 h): 42.0% | Decomposition efficiency of daidzin family in defatted soybean (pH7.8, heat treatment of enzyme: no, reaction time 1 h): 43.6% | Decomposition efficiency of daidzin family in defatted soybean (pH7.8, heat treatment of enzyme: no, reaction time 3 h): 41.4% | Decomposition efficiency of daidzin family in defatted soybean (pH7.8, heat treatment of enzyme: no, reaction time 6 h): 38.7% | Decomposition efficiency of daidzin family in defatted soybean (pH7.8, heat treatment of enzyme: yes, reaction time 6 h): 36.7% | Decomposition efficiency of daidzin family in roasted soy flour (pH8.5, heat treatment of enzyme no, reaction time 0 h): not detected | Decomposition efficiency of daidzin family in roasted soy flour (pH8.5, heat treatment of enzyme no, reaction time 1 h): not detected | Decomposition efficiency of daidzin family in roasted soy flour (pH8.5, heat treatment of enzyme no, reaction time 3 h): not detected | Decomposition efficiency of daidzin family in roasted soy flour (pH8.5, heat treatment of enzyme no, reaction time 6 h): not detected | Decomposition efficiency of daidzin family in roasted soy flour (pH8.5, heat treatment of enzyme yes, reaction time 6 h): not detected | Decomposition efficiency of daidzin family in concentrated soybean protein (pH8.6, heat treatment of enzyme: no, reaction time 0 h): not detected | Decomposition efficiency of daidzin family in concentrated soybean protein (pH8.6, heat treatment of enzyme: no, reaction time 1 h): not detected | Decomposition efficiency of daidzin family in concentrated soybean protein (pH8.6, heat treatment of enzyme: no, reaction time 3 h): not detected | Decomposition efficiency of daidzin family in concentrated soybean protein (pH8.6, heat treatment of enzyme: no, reaction time 6 h): not detected | Decomposition efficiency of daidzin family in concentrated soybean protein (pH8.6, heat treatment of enzyme: yes, reaction time 6 h): not detected | Decomposition efficiency of daidzin family in soymilk (pH11.6, heat treatment of enzyme: no, reaction time 0 h): 52.5% | Decomposition efficiency of daidzin family in soymilk (pH11.6, heat treatment of enzyme: no, reaction time 1 h): 56.4% | Decomposition efficiency of daidzin family in soymilk (pH11.6, heat treatment of enzyme: no, reaction time 3 h): 50.4% | Decomposition efficiency of daidzin family in soymilk (pH11.6, heat treatment of enzyme: no, reaction time 6 h): 47.7% | Decomposition efficiency of daidzin family in soymilk (pH11.6, heat treatment of enzyme: yes, reaction time 6 h): 46.1%
